From patent US20220002427A1, “BISPECIFIC ANTIBODY AGAINST BCMA AND CD3 AND AN IMMUNOLOGICAL DRUG FOR COMBINED USE IN TREATING MULTIPLE MYELOMA” (ENGMAB SARL, priority 2016, published 2022)

Test system: H929 MM cells
Experiment: H929 MM cell lysis with TCB alone or combined with lenalidomide, anti-PD-1 or daratumumab (co-culture with human leukocytes, flow cytometry)
Type: cell-based
Conditions: H929 cells + leucocytes of Donor 1, 48 h
Excerpt: FIGS. 21A-21B. Redirected T-cell lysis of H929 MM cells induced by anti-BCMA/anti-CD3 T-cell bispecific antibodies in combination with thalidomide derivatives (lenalidomide) or immunotherapeutic derivatives (anti-PD1 and anti-CD38 antibodies) as measured by flow cytometry. H929 MM cells were co-cultured with human leukocytes (n=1 or 5) and challenged to suboptimal concentrations of anti-BCMA/anti-CD3 T-cell bispecific antibody 83A10-TCcv (10 pM) (FIG. 21A) or 42-TCBcv (10 pM) (FIG. 21B) alone, in combination with suboptimal concentrations of lenalidomide (1 μM), anti-PD-1 (10 μg/ml) and anti-CD38 daratumumab (10 μg/ml).
Anti-BCMA/anti-CD3 T-cell bispecific antibody (namely 83A10-TCBcv or 42-TCBcv) was combined with three drugs representing different types of immunotherapy: lenalidomide, anti-PD-1 antibody and anti-CD38 antibody daratumumab. H929 MM cells were co-cultured with human leukocytes from healthy donors (n=1 or 5) in RPMI-1640 medium supplemented with 10% FBS, 0.5% gentamincin and 1% L-Glutamine at 37° C. in a humidified 5% CO2 incubator and challenged to suboptimal concentrations of 83A10-TCBcv (10 pM) (n=5) or 42-TCBcv (10 pM) (n=1) alone, or in combination with lenalidomide (1 μM), anti-PD-1 antibody (10 μg/ml) and anti-CD38 antibody daratumumab (10 μg/ml). […] FIG. 21B and Table 28 show the percentage of MM cell lysis when H929 cells and leucocytes from one healthy donor were exposed to 42-TCBcv (10 pM) combined with lenalidomide (1 μM), anti-PD-1 antibody (10 μg/ml) and anti-CD38 antibody daratumumab (10 μg/ml) for 48 h of culture.

[1] = with TCB (combination with 42-TCBcv)

Row | Compound | MM cell lysis [1] [%] | MM cell lysis (without TCB) [%]
1 | Daratumumab: anti-CD38 antibody (US20150246123) | 42.29 | 33.06
2 | Nc1cccc2c1CN(C1CCC(=O)NC1=O)C2=O (stereo not shown) [lenalidomide] | 13.27 | −1.78
